We go through 4 molecules from US20110319384A1, “Pharmaceutical Compositions” (priority 2005, published 2011).

Data set [1] concerns patients with treatment resistant major depression. Put plainly: Example 24: augmentation of antidepressant therapy, quetiapine versus lithium, 56 days. Here is the method:
The study compared tolerability and efficacy. […] Lithium was initiated at 600 mg/day, and maintained over Week 1 and 2 and subsequently adjusted to attain a level of 0.8-1.2 mmol/L. Lithium levels were taken weekly.
A total of 20 patients were randomized to 1 of the 2 treatment groups. The study population included men and women aged 18-65 years, with a diagnosis of major depression according to DSM-IV, Hamilton Depression Rating Scale (HAM-D)≧20 and a Clinical Global […] (CGI) score ≧4.
Patients were evaluated at baseline and then on days 7, 14, 28, 42, and 56 using the HAM-D, Montgomery-Asberg […] (MADRS), SAS, and Widlocher Psychomotor Retardation Scale.

In data set [2] the test system is patients resistant to anti-depressant treatment. The note with it: within 4 weeks; adjunct to anti-depressant therapy; cited from earlier work.
For data set [3], the system named is patients with GAD. The conditions noted are these: cited from earlier work.
In data set [4] the test system is patients with GAD. The conditions noted are these: cited from earlier work. This is another data set of the same source.
Data set [5] relates to patients with PTSD.
Source text: To be included, patients had to be diagnosed with PTSD according to DSM-IV criteria. Patients with comorbid psychotic disorders or substance abuse problems were excluded. […] The dose was split between morning and night time so that the majority of the dose was taken at bedtime.
The primary efficacy endpoints were: (1) change from baseline to endpoint in the Clinician Administered PTSD Scale (CAPS) total score; and (2) the percentage of patients meeting PTSD diagnostic criteria at endpoint. […] Adverse events (AEs) and patient adherence were also evaluated. Forty-seven patients were included in each treatment group.
[6] abbreviates: add-on to antidepressant, mean doses quetiapine 430 mg/day, lithium 825 mg/day.

Molecules are shown by their SMILES.

Consider `[Li]` [lithium], for which, in data set [1] (add-on to antidepressant), the “Widlocher Psychomotor Retardation Scale mean baseline score” value was “about 22”, the “Widlocher Psychomotor Retardation Scale mean score after treatment” value is reported as “about 15” and the “mean MADRS score after Day 7 up to Day 56 (end value)” value was “about 22”. Further, in data set [1] (setting [6]), the “mean HAM-D score at Day 56” value is “about 15” and the “mean HAM-D score, start value of 'From Day 7 to 56'” value is recorded as “about 28”. In addition, in data set [1] (after 56 days), the “patients in remission (HAM-D)” value is listed as 40%, the “patients who responded (MADRS)” value came out at 50% and the “patients who responded to treatment (HAM-D)” value is on record as 50%. Also, the “patients who achieved remission (MADRS)” value in data set [1] (at 56 days) is listed as 30%. In addition, the patients who respond in data set [2] is listed as ~50%.
With `COc1ccc(C(CN(C)C)C2(O)CCCCC2)cc1` (stereo not shown) [Venlafaxine XR, venlafaxine], in data set [3] (at 6 months, another long-term study), the “change in HAM-A total score compared to placebo” value is on record as 5.4. The “difference in HAM-A total score” value in data set [3] (long-term study, s.d.=7.5) is given as 4.18 points.
As to `Fc1ccc([C@@H]2CCNC[C@H]2COc2ccc3c(c2)OCO3)cc1` [paroxetine], the percent remission in data set [4] (placebo 30%) is 70%. Further, in data set [4] (relapse = increase in CGI-S score of at least 2 points to >=4, or withdrawal from lack of efficacy, placebo 39.9%), the relapse was 10.9%.
As to `CN[C@H]1CC[C@@H](c2ccc(Cl)c(Cl)c2)c2ccccc21` [sertraline+placebo, sertraline], in data set [5] (8 weeks), the “mean improvement (decrease) from baseline to endpoint in CAPS total score” value is listed as “about 53”. In data set [5] (after 8 weeks of treatment, disparity not seen with LOCF analysis), the “patients still meeting PTSD diagnostic criteria” value is on record as 37%. In addition, in data set [5] (in vivo), the CGI-I scores entry is “significant increase”; the “mean HAM-D scores and CGI-S scores, baseline to endpoint” value is “decreased significantly”. Further, the “patients that experienced at least one AE” value in data set [5] (of 59 in the study) was 31 patients.
